# Assay results taken from patent US9889122B2, “Positive allosteric modulators of nicotinic acetylcholine receptor” (H. Lundbeck A/S, priority 2011, dated 2018).
# Target: T1, human α7 receptor (Homo sapiens, UniProt P36544)
# T1 construct: host or cells: rat GH4C1 cell line
# Test: α7 NNR flux assay (FDSS Ca assay, Calcium-4 dye, positive allosteric modulation of acetylcholine response)
# Assay type: cell-based
# Settings: human α7 receptor stably expressed in rat GH4C1 cell line; acetylcholine 20 μM (~EC100); % modulation relative to reference PNU-120596 set to 100%
# Procedure: The nicotinic acetylcholine receptor α7 is a calcium-permeable ion channel, whose activity can be measured by over expression in mammalian cells or oocytes in this version of the assay, the human α7 receptor is stably expressed in the rat GH4C1 cell line. The assay was used to identify positive allosteric modulators (PAMs) of the α7 receptor. Activation of the channel was measured by loading cells with the calcium-sensitive fluorescent dye Calcium-4 (Assay kit from Molecular Devices), and then measuring real-time changes in fluorescence upon treatment with test compounds.
# The cell line ChanClone GH4C1-nAChRalpha7 from Genionics was seeded from frozen stock in 384-well plates in culture media 2-3 days before experiment to form an approximately 80% confluent layer on the day of experiment.
# Two or three days before the experiment the cells were seeded in 384 well plates from Greiner bio-one (781946, CELLCOAT, Poly-D-Lysine, black, μClear).
# The cells were seeded in 384 well plates with 30 μL/well (30000 cells/well) while stirring the cell suspension or otherwise preventing the cells from precipitating.
# The loading buffer was 5% v/v Calcium-4 Kit and 2.5 mM Probenecid in assay buffer.
# Culture media were removed from the cell plates and 20 μL loading buffer was added in each well. The cell plates were placed in trays and incubated 90 minutes in the incubator (37° C.). Thereafter the plates were incubated 30 minutes at room temperature, still protected from light.
# The assay buffer was HBSS with 20 mM HEPES, pH 7.4 and 3 mM CaCl2.
# 200 nL 10 mM compound solution in DMSO was diluted in 50 μL assay buffer. The final test concentrations in the cell plates were 20-10-5-2.5-1:25-0.625-0.312-0.156-0.078-0.039 μM. Assay buffer and 3 μM PNU-120596 were used for control.
# The agonist acetylcholine was added to a final concentration of 20 μM (˜EC100).
# In the FDSS7000 the Ex480-Em540 was measured with 1 second intervals. The baseline was made of 5 frames before addition of test compounds, and 95 frames more were made before addition of acetylcholine. The measurement stopped 30 frames after the 2nd addition. Raw data for each well were collected as “the maximum fluorescence count” in the interval 100-131 seconds and as “the average fluorescence count” in the interval 96-100 seconds. The positive allosteric modulation in the 2nd addition was the enhancement of agonist response with test compound compared to agonist alone.
# Results were calculated as % modulation of test compound compared to the reference PNU-120596 set to 100%.
# T1 sequence (P36544 23-502): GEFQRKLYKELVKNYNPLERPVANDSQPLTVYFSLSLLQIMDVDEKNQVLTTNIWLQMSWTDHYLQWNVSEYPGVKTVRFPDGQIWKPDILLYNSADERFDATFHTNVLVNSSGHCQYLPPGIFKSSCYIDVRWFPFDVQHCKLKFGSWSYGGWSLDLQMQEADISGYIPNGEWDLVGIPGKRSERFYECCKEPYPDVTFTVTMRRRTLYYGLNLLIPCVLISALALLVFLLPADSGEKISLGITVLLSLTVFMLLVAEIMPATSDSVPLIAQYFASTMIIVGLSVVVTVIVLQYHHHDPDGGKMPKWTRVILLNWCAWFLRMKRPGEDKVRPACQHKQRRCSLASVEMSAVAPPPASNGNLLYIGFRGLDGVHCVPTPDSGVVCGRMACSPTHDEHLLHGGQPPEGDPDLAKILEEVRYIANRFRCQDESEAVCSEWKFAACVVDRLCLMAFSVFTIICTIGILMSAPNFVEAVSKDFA
row,EC50 [nM],SMILES
1,2000,"C[C@H](NC(=O)[C@H]1C[C@@H]1c1ccccc1)c1ccc(OCC#N)nc1 [Compound 20, (1S,2S)-2-Phenyl-cyclopropane carboxylic acid [(S)-1-(6-cyanomethoxy-pyridin-3-yl)-ethyl]-amide]"
2,2400,"C[C@H](NC(=O)[C@H]1C[C@@H]1c1ccccc1)c1ccc(OC2COC2)nc1 [Compound 19, (1S,2S)-2-Phenyl-cyclopropanecarboxylic acid {(S)-1-[6-(oxetan-3-yloxy)-pyridin-3-yl]-ethyl}-amide]"
3,720,"[2H]C([2H])([2H])COc1ccc([C@H](CO)NC(=O)[C@H]2C[C@@H]2c2cccc(F)c2)cn1 [Compound 39, (1S,2S)-2-(3-Fluoro-phenyl)-cyclopropanecarboxylic acid [(R)-1-(6-(2,2,2-d3)-ethoxy-pyridin-3-yl)-2-hydroxy-ethyl]-amide]"
4,1700,"COC[C@H](NC(=O)[C@H]1C[C@@H]1c1ccccc1)c1ccc(O[C@H]2CCOC2)nc1 [Compound 48, (1S,2S)—N-[(1R)-2-methoxy-1-[6-[(3S)-tetrahydrofuran-3-yl]oxy-3-pyridyl]ethyl]-2-phenyl-cyclopropanecarboxamide]"
5,1600,"C[C@H](NC(=O)[C@H]1C[C@@H]1c1ccccc1)c1ccc(O[C@H]2CCOC2)nc1 [Compound 13, (1S,2S)-2-Phenyl-cyclopropanecarboxylic acid [(S)-1-{6-[(S)-(tetrahydro-furan-3-yl)oxy]-pyridin-3-yl]-ethyl}-amide]"
6,1000,"CCOc1ccc([C@H](CO)NC(=O)[C@H]2C[C@@H]2c2ccccc2)cn1 [Compound 33, (1S,2S)-2-Phenyl-cyclopropanecarboxylic acid [(R)-1-(6-ethoxy-pyridin-3-yl)-2-hydroxy-ethyl]-amide]"
7,3700,"CCOc1ncc([C@H](C)NC(=O)[C@H]2C[C@@H]2c2ccccc2)cn1 [Compound 17, (1S,2S)-2-Phenyl-cyclopropanecarboxylic acid [(S)-1-(2-ethoxy-pyrimidin-5-yl)-ethyl]-amide]"
8,1700,"[2H]C([2H])([2H])COc1ccc([C@H](CO)NC(=O)[C@H]2C[C@@H]2c2ccccc2)cn1 [Compound 31, (1S,2S)-2-Phenyl-cyclopropanecarboxylic acid [(R)-1-(6-(2,2,2-d3)-ethoxy-pyridin-3-yl)-2-hydroxy-ethyl]-amide]"
9,1200,"CCOc1cc([C@H](C)NC(=O)[C@H]2C[C@@H]2c2ccccc2)ccn1 [Compound 12, (1S,2S)-2-Phenyl-cyclopropanecarboxylic acid [(S)-1-(2-ethoxy-pyridin-4-yl)-ethyl]-amide]"
10,7600,"N#Cc1ccc([C@H](CO)NC(=O)[C@H]2C[C@@H]2c2ccccc2)nc1 [Compound 23, (1S,2S)-2-Phenyl-cyclopropanecarboxylic acid [(R)-1-(5-cyano-pyridin-2-yl)-2-hydroxy-ethyl]-amide]"
11,3700,"C[C@H](NC(=O)[C@H]1C[C@@H]1c1ccccc1)c1ccc(Cl)nc1 [Compound 18, (1S,2S)-2-Phenyl-cyclopropanecarboxylic acid [(S)-1-(6-chloro-pyridin-3-yl)-ethyl]-amide]"
12,1000,"COC[C@H](NC(=O)[C@H]1C[C@@H]1c1ccccc1)c1ccc(O[C@@H]2CCOC2)nc1 [Compound 47, (1S,2S)—N-[(1R)-2-methoxy-1-[6-[(3R)-tetrahydrofuran-3-yl]oxy-3-pyridyl]-ethyl]-2-phenyl-cyclopropanecarboxamide]"
13,670,"CC(C)Oc1ccc([C@H](C)NC(=O)[C@H]2C[C@@H]2c2ccccc2)cn1 [Compound 1, (1S,2S)-2-Phenyl-cyclopropanecarboxylic acid [(S)-1-(6-isopropoxy-pyridin-3-yl)-ethyl]-amide]"
14,2900,"O=C(N[C@@H](CO)c1ccc(O[C@@H]2CCOC2)nc1)[C@H]1C[C@@H]1c1ccccc1 [Compound 43, (1S,2S)-2-Phenyl-cyclopropanecarboxylic acid ((R)-2-hydroxy-1-{6-[(R)-(tetrahydro-furan-3-yl)oxy]-pyridin-3-yl}-ethyl)-amide]"
15,3700,"CCc1ccc([C@H](C)NC(=O)[C@H]2C[C@@H]2c2ccccc2)cn1 [Compound 8, (1S,2S)-2-Phenyl-cyclopropanecarboxylic acid [(S)-1-(6-ethyl-pyridin-3-yl)-ethyl]-amide]"
16,1600,"[2H]C([2H])(C)Oc1ccc([C@H](CO)NC(=O)[C@H]2C[C@@H]2c2ccccc2)cn1 [Compound 36, (1S,2S)-2-Phenyl-cyclopropanecarboxylic acid [(R)-1-(6-(1,1-d2)-ethoxy-pyridin-3-yl)-2-hydroxy-ethyl]-amide]"
17,5600,"Cc1ccc([C@H](C)NC(=O)[C@H]2C[C@@H]2c2ccccc2)nc1 [Compound 2, (1S,2S)-2-Phenyl-cyclopropanecarboxylic acid [(S)-1-(5-methyl-pyridin-2-yl)-ethyl]-amide]"

row,SMILES,EC50 [nM]
1,"O=C(N[C@@H](CO)c1ccc(OC2CCC2)nc1)[C@H]1C[C@@H]1c1ccc(F)cc1 [Compound 42, (1S,2S)-2-(4-Fluoro-phenyl)-cyclopropanecarboxylic acid [(R)-1-(6-cyclobutoxy-pyridin-3-yl)-2-hydroxy-ethyl]-amide]",790
2,"O=C(N[C@@H](CO)c1ccc(OC2CCC2)nc1)[C@H]1C[C@@H]1c1ccccc1 [Compound 40, (1S,2S)-2-Phenyl-cyclopropanecarboxylic acid [(R)-1-(6-cyclobutoxy-pyridin-3-yl)-2-hydroxy-ethyl]-amide]",890

# Test system: not given
# Test: not given
# Settings: not given
row,melting point [°C],SMILES
1,163 to 165,"C[C@H](NC(=O)[C@H]1C[C@@H]1c1ccccc1)c1ccc(OCC#N)nc1 [Compound 20, (1S,2S)-2-Phenyl-cyclopropane carboxylic acid [(S)-1-(6-cyanomethoxy-pyridin-3-yl)-ethyl]-amide]"
2,151 to 153,"C[C@H](NC(=O)[C@H]1C[C@@H]1c1ccccc1)c1ccc(OC2COC2)nc1 [Compound 19, (1S,2S)-2-Phenyl-cyclopropanecarboxylic acid {(S)-1-[6-(oxetan-3-yloxy)-pyridin-3-yl]-ethyl}-amide]"
